Test results published in article PMC9052545 (RSC Advances, 2020).

Biological target: HER2-Fc (HER2) (Homo sapiens, UniProt P04626)
Conditions: SEM, n = 3

Kd | Substance
280 ± 23 nM | FN3 with YCGCEM grafted at residues 51-56 (His-tagged) [FN3-p1]
68 ± 14 nM | FN3 with YCICCM grafted at residues 51-56 (His-tagged) [FN3-p1.M.1]
500 ± 150 nM | FN3 with RKPKSG grafted at residues 51-56 (His-tagged) [FN3-p4.4]
110 ± 28 nM | FN3 with YCPVCM grafted at residues 51-56 (His-tagged) [FN3-p1.M.3]
